Laboratory results taken from patent publication US10336792B2, “Antimicrobial peptide dendrimers” (priority 2014, dated 2019).

Key:
[1] = system: Pseudomonas aeruginosa (strain PA01); assay: microbe, parasite or virus in culture; format: cell-based; details: LB medium, serial 2/3 dilution, 37 °C, 18-24 h
In short: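 P. aeruginosa PAO1 grown overnight in LB, diluted to OD600 0.001 and mixed with ⅔-step peptide dilutions, then incubated at 37 °C for 18–24 h. After MTT staining, the lowest concentration with no visible growth was read by eye as the MIC.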

PAO1 = format: cell-based, Pseudomonas aeruginosa; details: PAO1, MH medium + 30% human serum
[2] = system: P. aeruginosa PT1482 (A-), PT1485 (A-B-), PT1149 (A-B-C-algC), PT331 (Z61) (LPS mutants); format: cell-based, Pseudomonas aeruginosa; details: MH medium, 12-18 h
P. aeruginosa PA01 (WT) = format: cell-based, Pseudomonas aeruginosa
[3] = system: P. aeruginosa PEJ2.6, PEJ9.1, ZEM1.A, ZEM9.A (clinical isolates); format: cell-based, Pseudomonas aeruginosa; details: MH medium, 12-18 h
In short: (§1)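 Broth microdilution in Müller-Hinton medium, two-fold serial dilutions from a starting 32–256 μg/mL, compounds dissolved in PBS; inoculum about 5×10^5 CFU, incubated 37° C ~18 h. MIC taken as lowest concentration with no visible growth by eye; polymyxin as reference.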

[4] = system: Staphylococcus aureus (COL, MRSA reference strain); format: cell-based; details: MH medium, 12-18 h
In short: as §1

Acinetobacter baumannii = format: cell-based; details: MH medium, 12-18 h
In short: as §1

Polymyxin B [reference compound]
MIC P. aeruginosa PAO1 [1]: 2 µg/mL | MIC (MH + 30% human serum) (PAO1): 4 µg/mL | MIC PT1482 (A-) [2]: 1 µg/mL | MIC PT1485 (AB-) [2]: <1 µg/mL | MIC PAO1 (P. aeruginosa PA01 (WT); MH medium, 12-18 h, two independent experiments in triplicate (Table 25)): 1 µg/mL | MIC (MH) (P. aeruginosa PA01 (WT); PAO1, MH medium (Table 24)): 2 µg/mL | MIC P. aeruginosa MDR clinical isolate PEJ2.6 [3]: 1 µg/mL | MIC P. aeruginosa MDR clinical isolate PEJ9.1 [3]: 2 µg/mL | MIC P. aeruginosa MDR clinical isolate ZEM1A [3]: <1 µg/mL | MIC P. aeruginosa MDR clinical isolate ZEM9A [3]: 8 µg/mL | MIC S. aureus COL [4]: 64 µg/mL | MIC A. baumannii ATCC19606 (Acinetobacter baumannii): <1 µg/mL
